As for `O=C(Nc1ccccc1)Nc1cnc2ccc(Nc3ccccc3)nc2n1` [Compound 14, 1-Phenyl-3-(6-phenylamino-pyrido[2,3-b]pyrazin-3-yl)-urea], the melting point – broadly, the temperature of the solid-liquid transition – came to 251 °C.

The compound `CCCNC(=S)Nc1ccc2ncc(Nc3cc(OC)c(OC)c(OC)c3)nc2n1` [Compound 501, 1-Propyl-3-[3-(3,4,5-trimethoxy-phenylamino)-pyrido[2,3-b]pyrazin-6-yl]-thiourea] returned a melting point of 243 °C.

With `C=CCNC(=O)Nc1cnc2ccc(-c3ccc(O)c(OC)c3)nc2n1` [Compound 18, 1-Allyl-3-[6-(4-hydroxy-3-methoxy-phenyl)-pyrido[2,3-b]pyrazin-3-yl]-urea], the melting point lay in the range of 211 to 213 °C.

Consider `CCNC(=S)Nc1ccc2ncc(-c3ccc(C)cc3)nc2n1` [Compound 124, 1-Ethyl-3-(3-p-tolyl-pyrido[2,3-b]pyrazin-6-yl)-thiourea], for which the melting point came to 246 °C.

As for `COc1cc(Nc2cnc3ccc(NC(=S)NCCN4CCOCC4)nc3n2)cc(OC)c1OC` [Compound 703, 1-(2-Morpholin-4-yl-ethyl)-3-[3-(3,4,5-trimethoxy-phenylamino)-pyrido[2,3-b]pyrazin-6-yl]-thiourea], the melting point is 196 °C.

The compound `CCNC(=O)Nc1ccc2ncc(-c3ccc(OC)cc3C)nc2n1` [Compound 98, 1-Ethyl-3-[3-(4-methoxy-2-methyl-phenyl)-pyrido[2,3-b]pyrazin-6-yl]-urea] showed a melting point of 223 to 225 °C.

For the compound `COc1cc(Nc2cnc3ccc(NC(=S)NCC4CCCCC4)nc3n2)cc(OC)c1OC` [Compound 696, 1-Cyclohexylmethyl-3-[3-(3,4,5-trimethoxy-phenylamino)-pyrido[2,3-b]pyrazin-6-yl]-thiourea], the melting point amounted to 347 °C.

Compound `CCNC(=O)Nc1cnc2ccc(Nc3cnc4ccccc4c3)nc2n1` [Compound 32, 1-Ethyl-3-[6-(quinolin-3-ylamino)-pyrido[2,3-b]pyrazin-3-yl]-urea] returned a melting point of 265 to 270 °C.

For the compound `COc1ccc(-c2ccc3ncc(NC(=O)NC4CCCCC4)nc3n2)cc1OC` [Compound 571, 1-Cyclohexyl-3-[6-(3,4-dimethoxy-phenyl)-pyrido[2,3-b]pyrazin-3-yl]-urea], the melting point is 262 to 264 °C.

In turn, `CCCCNC(=O)Nc1cnc2ccc(-c3ccc(O)c(OC)c3)nc2n1` [Compound 631, 1-Butyl-3-[6-(4-hydroxy-3-methoxy-phenyl)-pyrido[2,3-b]pyrazin-3-yl]-urea] gave a melting point of 223 to 226 °C.

As for `CCNC(=O)Nc1ccc2ncc(-c3ccc(N(c4ccccc4)c4ccccc4)cc3)nc2n1` [Compound 128, 1-[3-(4-Diphenylamino-phenyl)-pyrido[2,3-b]pyrazin-6-yl]-3-ethyl-urea], the melting point lay within 269 to 273 °C.

Turning to `CCNC(=O)Nc1cnc2ccc(Nc3ccccc3)nc2n1` [Compound 13, 1-Ethyl-3-(6-phenylamino-pyrido[2,3-b]pyrazin-3-yl)-urea], the melting point is 202 °C.

The compound `CCNC(=S)Nc1cnc2ccc(Nc3ccc(O)cc3)nc2n1` [Compound 198, 1-Ethyl-3-[6-(4-hydroxy-phenylamino)-pyrido[2,3-b]pyrazin-3-yl]-thiourea] showed a melting point of 258 °C.

In turn, `CCNC(=O)Nc1ccc2ncc(-c3cc(C)c(OC)c(C)c3)nc2n1` [Compound 80, 1-Ethyl-3-[3-(4-methoxy-3,5-dimethyl-phenyl)-pyrido[2,3-b]pyrazin-6-yl]-urea] returned a melting point of 255.3 to 258.2 °C.

Turning to `CCNC(=S)Nc1ccc2ncc(Nc3ccc(C)c(NS(C)(=O)=O)c3)nc2n1` [Compound 165, N-{5-[6-(3-Ethyl-thioureido)-pyrido[2,3-b]pyrazin-3-ylamino]-2-methyl-phenyl}-methanesulfonamide], the melting point is 268 °C.

As for `CCNC(=O)Nc1ccc2ncc(Nc3ccc(Cl)c(C(=O)O)c3)nc2n1` [Compound 434, 2-Chloro-5-[6-(3-ethyl-ureido)-pyrido[2,3-b]pyrazin-3-ylamino]-benzoic acid], the melting point was in the range of 324 to 329 °C.

For the compound `COc1cc(-c2ccc3ncc(NC(=O)Nc4ccccc4)nc3n2)ccc1O` [Compound 3, 1-[6-(4-Hydroxy-3-methoxy-phenyl)-pyrido[2,3-b]pyrazin-3-yl]-3-phenyl-urea], the melting point came out at 240 °C.

In turn, `Cc1cc(-c2ccc3ncc(NC(=O)Nc4ccccc4)nc3n2)cc(C)c1O` [Compound 595, 1-[6-(4-Hydroxy-3,5-dimethyl-phenyl)-pyrido[2,3-b]pyrazin-3-yl]-3-phenyl-urea] showed a melting point of 271 to 273 °C.

`CCNC(=O)Nc1ccc2ncc(-c3ccc(N)c([N+](=O)[O-])c3)nc2n1` [Compound 78, 1-[3-(4-Amino-3-nitro-phenyl)-pyrido[2,3-b]pyrazin-6-yl]-3-ethyl-urea]: the melting point was > 350 °C.

In turn, `CCNC(=O)Nc1cnc2ccc(-c3ccc(C(=O)O)c(O)c3)nc2n1` [Compound 644] came in with a melting point of 225 °C.

`CCNC(=S)Nc1cnc2ccc(Nc3ccc(OC)c(O)c3)nc2n1` [Compound 205, 1-Ethyl-3-[6-(3-hydroxy-4-methoxy-phenylamino)-pyrido[2,3-b]pyrazin-3-yl]-thiourea] registered a melting point of 166 °C.

Take `CCNC(=O)Nc1ccc2ncc(-c3ccc(NC(=O)OCCOCCOCCOC)c(OC)c3)nc2n1` [Compound 44, {4-[6-(3-Ethyl-ureido)-pyrido[2,3-b]pyrazin-3-yl]-2-methoxy-phenyl}-carbamic acid 2-[2-(2-methoxy-ethoxy)-ethoxy]-ethyl ester]: the melting point was > 330 °C.

Consider `Cc1cc(-c2ccc3ncc(NC(=O)Nc4c(C)noc4C)nc3n2)cc(C)c1O` [Compound 590, 1-(3,5-Dimethyl-isoxazol-4-yl)-3-[6-(4-hydroxy-3,5-dimethyl-phenyl)-pyrido[2,3-b]pyrazin-3-yl]-urea], for which the melting point was in the range of 242 to 244 °C.

On to `CCNC(=S)Nc1cnc2ccc(Cl)nc2n1` [Example 2, 1-(6-Chloro-pyrido[2,3-b]pyrazin-3-yl)-3-ethyl-thiourea], for which the melting point turned out to be 215 °C.

`CCNC(=O)Nc1ccc2ncc(Nc3cccc(Cl)c3)nc2n1` [Compound 167, 1-[3-(3-Chloro-phenylamino)-pyrido[2,3-b]pyrazin-6-yl]-3-ethyl-urea] came in with a melting point of 253 °C.

Take `CCNC(=O)Nc1ccc2ncc(Nc3ccc(C)cc3C)nc2n1` [Compound 398, 1-[3-(2,4-Dimethyl-phenylamino)-pyrido[2,3-b]pyrazin-6-yl]-3-ethyl-urea]: the melting point was 210 °C.

As for `CCNC(=O)Nc1ccc2ncc(-c3ccc(O)c(Br)c3)nc2n1` [Compound 47, 1-[3-(3-Bromo-4-hydroxy-phenyl)-pyrido[2,3-b]pyrazin-6-yl]-3-ethyl-urea], the melting point lay in the range of 337 to 339 °C.

The compound `CCNC(=S)Nc1ccc2ncc(Nc3cc(Cl)cc(Cl)c3)nc2n1` [Compound 443, 1-[3-(3,5-Dichloro-phenylamino)-pyrido[2,3-b]pyrazin-6-yl]-3-ethyl-thiourea] came in with a melting point of 270 °C.

In the case of `CCNC(=O)Nc1ccc2ncc(-c3ccccc3OCC(C)C)nc2n1` [Compound 62, 1-Ethyl-3-[3-(2-isobutoxy-phenyl)-pyrido[2,3-b]pyrazin-6-yl]-urea], the melting point fell in the range of 179 to 181 °C.

`CCNC(=O)Nc1ccc2ncc(-c3cccc(OC)c3OC)nc2n1` [Compound 68, 1-[3-(2,3-Dimethoxy-phenyl)-pyrido[2,3-b]pyrazin-6-yl]-3-ethyl-urea] displayed a melting point of 182 to 185 °C.

`COc1cc(Nc2cnc3ccc(NC(=S)NCc4ccccc4)nc3n2)cc(OC)c1OC` [Compound 697, 1-Benzyl-3-[3-(3,4,5-trimethoxy-phenylamino)-pyrido[2,3-b]pyrazin-6-yl]-thiourea] yielded a melting point of 250 to 252 °C.

The compound `COc1cc(Nc2cnc3ccc(NC(=S)NCc4ccco4)nc3n2)cc(OC)c1OC` [Compound 708, 1-Furan-2-ylmethyl-3-[3-(3,4,5-trimethoxy-phenylamino)-pyrido[2,3-b]pyrazin-6-yl]-thiourea] returned a melting point of 228 °C.

As for `CCNC(=O)Nc1ccc2ncc(-c3cc(Cl)ccc3OC)nc2n1` [Compound 91, 1-[3-(5-Chloro-2-methoxy-phenyl)-pyrido[2,3-b]pyrazin-6-yl]-3-ethyl-urea], the melting point lay in the range of 254 to 257 °C.

Compound `COc1ccc(-c2ccc3ncc(NC(=O)Nc4ccc(F)cc4)nc3n2)cc1OC` [Compound 572, 1-[6-(3,4-Dimethoxy-phenyl)-pyrido[2,3-b]pyrazin-3-yl]-3-(4-fluoro-phenyl)-urea] had a melting point of 269 to 271 °C.

As for `CCNc1ccc2ncc(Nc3cc(OC)c(OC)c(OC)c3)nc2n1` [Compound 733, N*6*-Ethyl-N*3*- (3,4,5-trimethoxy-phenyl)-pyrido[2,3-b]pyrazine-3,6-diamine], the melting point was found to be 110 °C.

On to `CCNC(=O)Nc1ccc2ncc(-c3ccn[nH]3)nc2n1` [Compound 52, 1-Ethyl-3-[3-(2H-pyrazol-3-yl)-pyrido[2,3-b]pyrazin-6-yl]-urea], for which the melting point was in the range of 218 to 220 °C.

`CCNC(=O)Nc1ccc2ncc(-c3ccccc3SC)nc2n1` [Compound 135, 1-Ethyl-3-[3-(2-methylsulfanyl-phenyl)-pyrido[2,3-b]pyrazin-6-yl]-urea] gave a melting point of 182 to 185 °C.

On to `COc1cc(-c2ccc3ncc(NC(=O)Nc4ccc(-n5cccc5)cc4)nc3n2)ccc1O` [Compound 623, 1-[6-(4-Hydroxy-3-methoxy-phenyl)-pyrido[2,3-b]pyrazin-3-yl]-3-(4-pyrrol-1-yl-phenyl)-urea], for which the melting point was in the range of 263 to 265 °C.

Take `CCNC(=O)Nc1ccc2ncc(Nc3ccccc3)nc2n1` [Compound 64, 1-Ethyl-3-(3-phenylamino-pyrido-[2,3-b]pyrazin-6-yl)-urea]: the melting point fell in the range of 229 to 231 °C.

For `CCNC(=S)Nc1ccc2ncc(Nc3cccc(Cl)c3)nc2n1` [Compound 329, 1-[3-(3-Chloro-phenylamino)-pyrido[2,3-b]pyrazin-6-yl]-3-ethyl-thiourea], the melting point is > 220 °C.

Turning to `CCNC(=O)Nc1cnc2ccc(-c3ccc(N)c(OC)c3)nc2n1` [Compound 2, 1-[6-(4-Amino-3-methoxy-phenyl)-pyrido[2,3-b]pyrazin-3-yl]-3-ethyl-urea], the melting point is > 310 °C.

These data come from patent US8536332B2, “Modulating signal transduction pathways with substituted pyridol [2,3-b] pyrazines” (Aeterna Zentaris GmbH, priority 2007, dated 2013).
